Data from ChEMBL document CHEMBL4627303, “Design, synthesis and evaluation of flurbiprofen-clioquinol hybrids as multitarget-directed ligands against Alzheimer's disease” (Bioorg Med Chem, 2020).
Active and inactive are the calls of the source. The calls are words filed in the database; no cut-off is given here.

Experiments:
BV-2 [1] = assay: Anti-neuroinflammatory activity in mouse BV2 cells assessed as inhibition of LPS-induced NO production at 2.5 uM preincubated for 30 mins followed by LPS stimulation measured after 24 hrs by Griess reagent based assay relative to control; format: functional
[2] = Antioxidant activity assessed as AAPH-induced radical scavenging activity by measuring trolox equivalents for oxygen radical absorbance capacity measured every minute for 90 mins by ORAC-FL assay; format: functional
[3] = Metal chelating activity assessed as compound-Cu2+ complex stoichiometry ratio of 1:1 at 37.5 uM in presence of CuCl2 after 15 mins by UV-visible spectrophotometric analysis
[4] = biological target: Amyloid-beta precursor protein (Homo sapiens) (UniProt P05067); assay: Inhibition of HFIP-pretreated amyloid beta (1 to 42) (unknown origin) self-aggregation at 25 uM after 24 hrs by thioflavin-T fluorescence assay relative to control
[5] = biological target: T1, Amine oxidase [flavin-containing] B (Homo sapiens, UniProt P27338); assay: Inhibition of recombinant human MAOB expressed in baculovirus infected in BTI cells at 10 uM using kynuramine as substrate after 30 mins by fluorescence based assay relative to control; conditions: 0.5 h
T1 sequence (P27338 whole entry): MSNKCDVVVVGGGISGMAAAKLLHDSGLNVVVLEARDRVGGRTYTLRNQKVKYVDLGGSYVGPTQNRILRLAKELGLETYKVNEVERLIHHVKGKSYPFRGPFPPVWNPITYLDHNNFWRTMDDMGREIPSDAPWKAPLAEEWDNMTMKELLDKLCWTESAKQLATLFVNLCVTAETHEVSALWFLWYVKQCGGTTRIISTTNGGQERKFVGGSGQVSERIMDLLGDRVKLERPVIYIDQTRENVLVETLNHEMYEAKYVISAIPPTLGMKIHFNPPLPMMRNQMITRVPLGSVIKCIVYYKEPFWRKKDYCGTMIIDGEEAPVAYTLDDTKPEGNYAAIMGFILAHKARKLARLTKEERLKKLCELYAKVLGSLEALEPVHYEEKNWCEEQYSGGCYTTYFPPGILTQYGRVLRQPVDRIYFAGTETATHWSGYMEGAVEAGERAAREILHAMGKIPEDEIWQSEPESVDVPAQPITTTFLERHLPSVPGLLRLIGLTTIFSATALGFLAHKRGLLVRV

BV-2 [6] = assay: Anti-neuroinflammatory activity in mouse BV2 cells assessed as inhibition of LPS-induced TNFalpha production preincubated for 30 mins followed by LPS stimulation measured after 24 hrs by ELISA; format: functional, cell-based
BV-2 [7] = assay: Anti-neuroinflammatory activity in mouse BV2 cells assessed as inhibition of LPS-induced TNFalpha production at 10 uM preincubated for 30 mins followed by LPS stimulation measured after 24 hrs by ELISA relative to control; format: functional
[8] = biological target: Amyloid-beta precursor protein (Homo sapiens) (UniProt P05067); assay: Disaggregation of self-induced amyloid beta (1 to 42) (unknown origin) preformed fibrils at 25 uM measured after 24 hrs by thioflavin-T fluorescence assay relative to control
BV-2 [9] = assay: Effect on TNFalpha production in mouse BV2 cells at 10 uM measured after 30 mins by ELISA; format: ADME, cell-based; conditions: bv-2, 0.5 h
BV-2 [10] = assay: Anti-neuroinflammatory activity in mouse BV2 cells assessed as inhibition of LPS-induced NO production at 0.5 uM preincubated for 30 mins followed by LPS stimulation measured after 24 hrs by Griess reagent based assay relative to control; format: functional
BV-2 [11] = assay: Cytotoxicity against mouse BV2 cells assessed as reduction in cell viability at 0.5 to 10 uM measured after 30 mins by MTT assay; format: cell-based; conditions: bv-2, 0.5 h
BV-2 [12] = assay: Anti-neuroinflammatory activity in mouse BV2 cells assessed as inhibition of LPS-induced NO production at 10 uM preincubated for 30 mins followed by LPS stimulation measured after 24 hrs by Griess reagent based assay relative to control; format: functional
[13] = Metal chelating activity assessed as Cu2+-compound complex formation at 37.5 uM measured after 2 hrs in presence of 37.5 uM CuCl2 by UV-Vis spectrophotometric analysis
BV-2 [14] = assay: Anti-neuroinflammatory activity in mouse BV2 cells assessed as inhibition of LPS-induced TNFalpha production at 2.5 uM preincubated for 30 mins followed by LPS stimulation measured after 24 hrs by ELISA relative to control; format: functional
BV-2 [15] = assay: Anti-neuroinflammatory activity in mouse BV2 cells assessed as inhibition of LPS-induced TNFalpha production at 0.5 uM preincubated for 30 mins followed by LPS stimulation measured after 24 hrs by ELISA relative to control; format: functional
BV-2 [16] = assay: Cytotoxicity against LPS-induced mouse BV2 cells assessed as reduction in cell viability at 0.5 to 10 uM preincubated for 30 mins followed by LPS stimulation and measured after 24 hrs by MTT assay; format: cell-based; conditions: bv-2, 24 h
PC-12 [17] = assay: Neuroprotective activity against H2O2-induced cytotoxicity in rat PC12 cells assessed as cell viability at 1 uM preincubated for 2 hrs followed by H2O2 addition and measured after 24 hrs by MTT assay (reference value: 48.3%); format: functional; conditions: read-out: Activity
PC-12 [18] = assay: Neuroprotective activity against H2O2-induced cytotoxicity in rat PC12 cells assessed as cell viability at 10 uM preincubated for 2 hrs followed by H2O2 addition and measured after 24 hrs by MTT assay (reference value: 48.3%); format: functional; conditions: read-out: Activity
[19] = Metal chelating activity assessed as Fe2+-compound complex formation at 37.5 uM measured after 2 hrs in presence of 37.5 uM FeSO4 by UV-vis spectrophotometric analysis
[20] = biological target: Amyloid-beta precursor protein (Homo sapiens) (UniProt P05067); assay: Inhibition of Cu2+-induced HFIP-pretreated amyloid beta (1 to 42) (unknown origin) aggregation at 25 uM measured after 24 hrs by thioflavin-T fluorescence assay relative to control
BV-2 [21] = assay: Anti-neuroinflammatory activity in mouse BV2 cells assessed as inhibition of LPS-induced NO production preincubated for 30 mins followed by LPS stimulation measured after 24 hrs by Griess reagent based assay; format: functional, cell-based
PC-12 [22] = assay: Neuroprotective activity against H2O2-induced cytotoxicity in rat PC12 cells assessed as increase in cell viability preincubated for 2 hrs followed by H2O2 addition and measured after 24 hrs by MTT assay; format: functional, cell-based
[23] = Metal chelating activity assessed as Zn2+-compound complex formation at 37.5 uM measured after 2 hrs in presence of 37.5 uM ZnCl2 by UV-vis spectrophotometric analysis
[24] = Effective permeability of the compound in PBS/EtOH buffer (7:3) at 100 ug/ml after 18 hrs by PAMPA-BBB assay; format: ADME; conditions: read-out: Peff
[25] = biological target: T2, Amine oxidase [flavin-containing] A (Homo sapiens, UniProt P21397); assay: Inhibition of recombinant human MAOA expressed in baculovirus infected in BTI cells at 10 uM using kynuramine as substrate after 30 mins by fluorescence based assay relative to control; conditions: 0.5 h
T2 sequence (P21397 whole entry): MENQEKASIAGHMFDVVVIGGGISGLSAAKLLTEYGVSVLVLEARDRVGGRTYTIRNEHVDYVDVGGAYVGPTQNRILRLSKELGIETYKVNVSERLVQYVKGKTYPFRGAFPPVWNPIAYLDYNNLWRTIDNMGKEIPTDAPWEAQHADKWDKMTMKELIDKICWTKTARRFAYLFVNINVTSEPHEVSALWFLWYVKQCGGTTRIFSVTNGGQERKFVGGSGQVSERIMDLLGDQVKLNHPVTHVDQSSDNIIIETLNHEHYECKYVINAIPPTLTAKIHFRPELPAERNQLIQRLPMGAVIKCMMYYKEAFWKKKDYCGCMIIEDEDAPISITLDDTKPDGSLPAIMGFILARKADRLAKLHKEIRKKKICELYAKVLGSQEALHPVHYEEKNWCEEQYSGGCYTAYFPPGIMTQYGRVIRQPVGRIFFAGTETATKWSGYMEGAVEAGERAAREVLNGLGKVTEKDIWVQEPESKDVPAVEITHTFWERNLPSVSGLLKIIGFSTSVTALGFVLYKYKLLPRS

[26] = Metal chelating activity assessed as Al3+-compound complex formation at 37.5 uM measured after 2 hrs in presence of 37.5 uM AlCl3 by UV-vis spectrophotometric analysis
BV-2 [27] = assay: Effect on nitric oxide production in mouse BV2 cells at 0.5 to 10 uM measured after 30 mins by Griess reagent based […]; format: ADME, cell-based; conditions: bv-2, 0.5 h
[28] = biological target: T1, Amine oxidase [flavin-containing] B; assay: Inhibition of recombinant human MAOB expressed in baculovirus infected in BTI cells using kynuramine as substrate after 30 mins by fluorescence based assay; format: cell-based

Sequence of Amyloid-beta precursor protein (Homo sapiens) (P05067 whole entry): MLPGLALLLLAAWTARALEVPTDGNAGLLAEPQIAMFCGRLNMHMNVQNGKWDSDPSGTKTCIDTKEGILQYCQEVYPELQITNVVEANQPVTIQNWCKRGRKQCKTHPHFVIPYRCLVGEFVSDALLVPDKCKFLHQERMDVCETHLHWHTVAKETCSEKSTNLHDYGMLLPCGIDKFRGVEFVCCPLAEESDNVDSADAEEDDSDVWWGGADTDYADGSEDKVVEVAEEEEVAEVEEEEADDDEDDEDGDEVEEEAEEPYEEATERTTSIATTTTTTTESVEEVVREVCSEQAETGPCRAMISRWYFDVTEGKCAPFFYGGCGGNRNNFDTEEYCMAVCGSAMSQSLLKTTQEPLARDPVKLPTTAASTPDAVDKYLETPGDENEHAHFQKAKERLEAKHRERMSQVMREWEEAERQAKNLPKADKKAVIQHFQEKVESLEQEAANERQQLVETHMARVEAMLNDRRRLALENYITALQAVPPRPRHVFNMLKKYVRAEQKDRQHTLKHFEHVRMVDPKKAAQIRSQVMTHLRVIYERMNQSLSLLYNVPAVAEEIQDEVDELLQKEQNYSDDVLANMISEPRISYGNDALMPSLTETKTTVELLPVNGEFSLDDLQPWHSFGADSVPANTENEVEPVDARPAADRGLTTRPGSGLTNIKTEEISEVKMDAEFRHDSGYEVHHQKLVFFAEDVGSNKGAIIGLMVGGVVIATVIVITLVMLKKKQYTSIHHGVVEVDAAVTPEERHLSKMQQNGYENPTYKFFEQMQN

Row | SMILES | inhibition at 2.5 µM (BV-2 [1]) | Activity [2] | Activity [3] | inhibition [4] | inhibition at 10 µM [5] | inhibition (BV-2 [6]) | inhibition at 10 µM (BV-2 [7]) | Activity [8] | Activity (BV-2 [9]) | inhibition at 0.5 µM (BV-2 [10]) | Activity (BV-2 [11]) | inhibition at 10 µM (BV-2 [12]) | Activity [13] | inhibition at 2.5 µM (BV-2 [14]) | inhibition at 0.5 µM (BV-2 [15]) | Activity (BV-2 [16]) | viability at 1 µM (PC-12 [17]) | viability at 10 µM (PC-12 [18]) | Activity [19] | inhibition [20] | also measured
1 | COC(=O)C(C)c1ccc(-c2ccccc2NCc2cc(N(C)C)ccc2O)c(F)c1 (stereo not given) | 43.4% | 1.91 µMequiv/µM | Active | 96.1% | 34.6% | Dose-dependent effect | 68.1% | 91.1% | Non-Toxic | 26.9% | Non-Toxic | 52.4% | Active | 49.1% | 35% | Non-Toxic | 68.6% | 80% | inactive | 87.3% | inhibition (BV-2 [21]): Dose-dependent effect; Activity (PC-12 [22]): Dose-dependent effect; Activity [23]: inactive; Papp at 18 h, 100 ug/ml [24]: 4.09 ×10⁻⁶ cm/s; inhibition at 10 µM [25]: 35.4%; Activity [26]: Active; Activity (BV-2 [27]): Non-Toxic
2 | COC(=O)C(C)c1ccc(-c2ccc(NCc3cc(N(C)C)ccc3O)cc2)c(F)c1 (stereo not given) | 46.7% | 2.44 µMequiv/µM | Active | 96.3% | 52.4% | Dose-dependent effect | 76.5% | 91.1% | Non-Toxic | 32.4% | Non-Toxic | 57.2% | Active | 53.1% | 35.8% | Non-Toxic | 70.2% | 81.6% | inactive | 84.3% | IC50 [28]: 10.3 µM; inhibition (BV-2 [21]): Dose-dependent effect; Activity (PC-12 [22]): Dose-dependent effect; Activity [23]: inactive; Papp at 18 h, 100 ug/ml [24]: 5.48 ×10⁻⁶ cm/s; inhibition at 10 µM [25]: 26.3%; Activity [26]: Active; Activity (BV-2 [27]): Non-Toxic
